# Source: patent publication US7135494B2, “Antitumoral carbazoles” (Pharma Mar, S.A., priority 2000, dated 2006)
# Read-outs that look alike come from different tables or passages of the source.
# How the values were obtained:
# Format in all cases: cell-based
# P388 leukemia cell line = assay: SRB colorimetric assay of cell growth and viability, P388; conditions: Mus musculus
# Procedure: (§1) Biological tests were carried out on coproverdine (the compound of Example 1 of the present application). A colorimetric type of assay, using sulforhodamine B (SRB) reaction, was used to provide a quantitative measurement of cell growth and viability. The technique described by Skehan, et al., J Natl. Cancer Inst., 1990, 82, 1107, was followed. The reader is also referred to the following references: • Faircloth et al. Journal of Tissue and Culture Methods, 1988, 11, 201. • Monks et al. Articles, 1991, 83, 757. • Mosmann et al. Journal of Immunological Methods, 1983, 65, 55.
# (§2) Further biological tests were carried out on coproverdine using similar methods. The results are given using the following cellular response parameters: GI=growth inhibition, TGI=total growth inhibition (cytostatic effect) and LC=cell killing (cytotoxic effect).
# Lung (A-549) = assay: SRB colorimetric assay of cell growth and viability, A-549
# Procedure: as §1, §2
# Colon (HT-29) = assay: SRB colorimetric assay of cell growth and viability, HT-29
# Procedure: as §1, §2
# Melanoma (MEL-28) = assay: SRB colorimetric assay of cell growth and viability, MEL-28; conditions: Homo sapiens, SK-MEL-28, 24 wells/16 mm, 10,000 cells/72 h, read-out: IC50 (concentration that causes 50% growth inhibition)
# Procedure: as §1, §2
# Prostate (DU-145) = assay: SRB colorimetric assay of cell growth and viability, DU-145; conditions: Homo sapiens, 24 wells/16 mm, 10,000 cells/72 h, read-out: IC50 (concentration that causes 50% growth inhibition)
# Procedure: as §1, §2
# [1] = 96 wells/9 mm, 5,000 cells/48 h
compound,measurement,setting,value
"COC(=O)c1cccc2c3c(n(O)c12)C(O)(C=O)C=CC3=O (stereo not drawn) [coproverdine, 8-formyl-8,9-dihydroxy-5-oxo-8,9-dihydro-5H-carbazole-1-carboxylic acid methyl ester]",IC50,"P388 leukemia cell line; P388, Leukemia (P-388), 24 wells/16 mm, 10,000 cells/72 h, read-out: IC50 (concentration that causes 50% growth inhibition)",1.6 µM
same,IC50,"P388 leukemia cell line; P388 leukemia cell line, first test, read-out: IC50",0.95 µg/mL
same,"TGI (total growth inhibition, cytostatic effect)",Lung (A-549); [1],15 µM
same,IC50,"Lung (A-549); Homo sapiens, A549, 24 wells/16 mm, 10,000 cells/72 h, read-out: IC50 (concentration that causes 50% growth inhibition)",0.3 µM
same,GI50,"Lung (A-549); Homo sapiens, A549, 96 wells/9 mm, 5,000 cells/48 h, read-out: GI50 (50% growth inhibition with correction for cell OD at time zero)",7 µM
same,CC50,"Lung (A-549); Homo sapiens, A549, 96 wells/9 mm, 5,000 cells/48 h, read-out: LC50 (50% cell killing, cytotoxic effect)",50 µM
same,"TGI (total growth inhibition, cytostatic effect)",Colon (HT-29); [1],16 µM
same,IC50,"Colon (HT-29); Homo sapiens, 24 wells/16 mm, 10,000 cells/72 h, read-out: IC50 (concentration that causes 50% growth inhibition)",0.3 µM
same,GI50,"Colon (HT-29); Homo sapiens, 96 wells/9 mm, 5,000 cells/48 h, read-out: GI50 (50% growth inhibition with correction for cell OD at time zero)",6 µM
same,CC50,"Colon (HT-29); Homo sapiens, 96 wells/9 mm, 5,000 cells/48 h, read-out: LC50 (50% cell killing, cytotoxic effect)",50 µM
same,IC50,Melanoma (MEL-28),0.3 µM
same,IC50,Prostate (DU-145),0.3 µM
